The source of these data is US8921270B2, “Method for pre-emergent weed control using triazine-based herbicide” (Amvac Chemical Corporation, priority 2011, dated 2014).

Data set [1] deals with corn. The following applies: in vivo. The procedure:
Several scientific and replicated field research trials were conducted in multiple locations to evaluate weed control and crop tolerance of herbicide compositions containing about 80% by weight of […] active ingredient in the form of a water dispersible granule (WDG). The herbicide compositions were applied to the soil surface with or without weeds present at specific intervals i) before planting ([…]) prior to planting and incorporated into the soil ([…] incorporated), and iii) after planting of the corn, but prior to emergence (preemergence). Small plot research trials were conducted using a statistical design known as Randomized Complete Block Design (RCBD), which assumes that a population of experimental units can be divided into a number of relatively homogeneous subpopulations or blocks. […] In the analysis, the variation among blocks can be partitioned out of the experimental error (MSE), thereby reducing this quantity and increasing the power of the test. […] Crop tolerance was evaluated at intervals of 7 to 14, 21 to 28, and 42 to 56 days after corn emergence in these trials. […] Crop tolerance was evaluated at intervals of 23, 33, 41 and 56 days after corn emergence in these trials. […] Corn injury (height of corn, number of plants emerged) was measured as visual injury (% injury) at three different times during the season. […]

For data set [2], the system named is corn. The following applies: in vivo. The procedure:
(§1) Several scientific and replicated field research trials were conducted in multiple locations to evaluate weed control and crop tolerance of herbicide compositions containing about 80% by weight of ametryn active ingredient in the form of a water dispersible granule (WDG). The herbicide compositions were applied to the soil surface with or without weeds present at specific intervals i) before planting (preplant), ii) prior to planting and incorporated into the soil (preplant incorporated), and iii) after planting of the corn, but prior to emergence (preemergence).
(§2) Small plot research trials were conducted using a statistical design known as Randomized Complete Block Design (RCBD), which assumes that a population of experimental units can be divided into a number of relatively homogeneous subpopulations or blocks. […] In the analysis, the variation among blocks can be partitioned out of the experimental error (MSE), thereby reducing this quantity and increasing the power of the test. […]
(§3) Efficacy on weeds and crop tolerance evaluations were conducted at specified intervals for each trial. […] Crop tolerance was evaluated at intervals of 7 to 14, 21 to 28, and 42 to 56 days after corn emergence in these trials. […] In an additional trial, efficacy of ametryn at rates of 1.2, 1.6 and 2.4 lb ai/a applied PRE was evaluated on grass and broadleaf weeds at the same intervals as the earlier trials. […]
The source holds these as a separate data set.

A further data set concerns Cocklebur. The data set is described as follows: Weed control field trial, Richland, Iowa, fine textured soil (Example 6). In kind it is in vivo. The following applies: PRE; 4 weeks observation after application. The procedure:
as §1
(§4) Small plot research trials were conducted using a statistical design known as Randomized Complete Block Design (RCBD), which assumes that a population of experimental units can be divided into a number of relatively homogeneous subpopulations or blocks. The treatments are then randomly assigned to experimental units such that each treatment occurs equally often (usually once) in each block—i.e., each block contains all treatments. Blocks usually represent levels of naturally occurring differences or sources of variation that are unrelated to the treatments. In the analysis, the variation among blocks can be partitioned out of the experimental error (MSE), thereby reducing this quantity and increasing the power of the test. See, Clewer, A. G., and D. H. Scarisbrick. 2001. Practical statistics and experimental design for plant and crop science. John Wiley & Sons Ltd., New York. crop science. Treatment size was typically 4 rows of corn on 30-inch row spacing×30 feet long replicated 3 to 4 times. Preplant, preplant incorporated (PPI), or preemergence (PRE) treatments were uniformly applied with a hand-held backpack sprayer pressurized with compressed air or carbon dioxide (CO2) as the propellant to simulate commercial scale application. Treatments were applied using flat fan nozzle or spray nozzles at from 30 to 35 pounds per square inch (psi) delivering from 15 to 20 gallons of finished spray solution per acre.
(§5) Efficacy on weeds and crop tolerance evaluations were conducted at specified intervals for each trial. Ametryn herbicide (80% WDG) was applied to the soil at the times relative to planting as indicated at rates of 0.8, 1.2, 1.6, and 2.4 pounds of active ingredient per acre (lb ai/a) at various days preplant up to right before planting (0 day preplant), or immediately following planting (PRE), but before crop emergence. Crop tolerance was evaluated at intervals of 7 to 14, 21 to 28, and 42 to 56 days after corn emergence in these trials. Crop injury, if observed, was reported on a 0 to 100% visual rating scale and the type of injury (e.g., stunting) was noted. The efficacy of ametryn at a rate of 0.8, 1.2, 1.6 and 2.4 lbs ai/a applied 7 to 14 days preplant was evaluated on grass and broadleaf weeds at intervals of 7 to 14, 21 to 28, and 42 to 56 days after corn emergence. Efficacy trials were also conducted in no tillage and reduced tillage cropping systems, allowing for evaluations of existing weeds at application (i.e., burndown) and residual control of weeds which germinate following application. In an additional trial, efficacy of ametryn at rates of 1.2, 1.6 and 2.4 lb ai/a applied PRE was evaluated on grass and broadleaf weeds at the same intervals as the earlier trials. Efficacy in the later trials was conducted in both conventional and reduced tillage systems, which allowed for evaluations of residual weed control following application. A local commercial corn hybrid was planted in each trial location.
(§6) A weed control field trial was conducted in Richland, Iowa on a fine textured soil (e.g., silty clay loam). […]

A further data set has as its system Giant Foxtail. The data set is described as above. Format: in vivo. The following applies: PRE; 4 weeks observation after application. Here is the method:
as §1, §4, §5, §6

Another data set concerns Giant Ragweed. The description is as above. In kind it is in vivo. Particulars: PRE; 4 weeks observation after application. Here is the method:
as §1, §4, §5, §6

Another data set deals with Morningglory. Described as above. In kind it is in vivo. Particulars: PRE; 4 weeks observation after application. Here is the method: as §1, §4, §5, §6
The subject of another data set is Velvetleaf. The data set is described as above. In kind it is in vivo. Particulars: PRE; 4 weeks observation after application. The procedure:
as §1, §4, §5, §6

A further data set deals with Waterhemp. Described as above. Format: in vivo. Particulars: PRE; 4 weeks observation after application. Here is the method:
as §1, §4, §5, §6

The test system of data set [3] is corn. Particulars: in vivo. Here is the method: as §1, §2, §3
This is another data set of the same source.

Data set [4] deals with corn. As to the kind of experiment: Corn injury in weed control field trial, Laurel, Md., light textured soil (Example 9). Format: in vivo. The procedure:
as §1, §4
Efficacy on weeds and crop tolerance evaluations were conducted at specified intervals for each trial. […] Crop tolerance was evaluated at intervals of 7 to 14, 21 to 28, and 42 to 56 days after corn emergence in these trials. […] The efficacy of ametryn at a rate of 0.8, 1.2, 1.6 and 2.4 lbs ai/a applied 7 to 14 days preplant was evaluated on grass and broadleaf weeds at intervals of 7 to 14, 21 to 28, and 42 to 56 days after corn emergence. […] In an additional trial, efficacy of ametryn at rates of 1.2, 1.6 and 2.4 lb ai/a applied PRE was evaluated on grass and broadleaf weeds at the same intervals as the earlier trials. […]

Like-named read-outs stand apart in the source and are kept apart here.

In the case of `CCNc1nc(NC(C)C)nc(SC)n1` [ametryn, 2-ethylamino-4-isopropylamino-6-methylthio-s-triazine], the “Corn injury (visual injury)” value with corn [1] is recorded as “No injury”. Also, the “Percent corn injury (corn safety)” value in the data set on corn [2] and in the data set with corn [3] was “excellent corn safety” each time. Moreover, the Weed control entry is recorded as “moderate to good control” in the data set with Cocklebur; “moderate to good control” in the data set on Giant Foxtail; “moderate to good control” with Giant Ragweed; “moderate to good control” with Morningglory; “moderate to good control” with Velvetleaf; “excellent control” in the data set with Waterhemp. Moreover, the Corn yield entry in the data set with corn [4] (even when minor injury was observed) is reported as “no negative effect on yield”. The Corn injury entry with corn [4] (in vivo) was “Minor injury”. Besides, in the data set on corn [4] (in vivo), the “Percent corn injury (safety to corn versus commercial standard)” value is “as safe to corn as a commercial standard of isoxaflutole with cyprosulfamide”. The Safety to corn entry with corn [4] (in vivo) is “excellent safety”.
